These results are taken from US12559492B2, “BRAF degraders” (C4 Therapeutics, Inc., priority 2020, dated 2026).

Counter-ions that a name gives are not always drawn.

The target of the assay is BRAF^V600E protein (Homo sapiens, UniProt P15056, V600E). Kind of assay: HiBiT cellular BRAF V600E degradation assay. The class given is cell-based. Particulars: 24 h incubation; for DC50: A375.10 cells (HiBiT tag knocked in at N-terminal of BRAF V600E), concentration at which 50% of total cellular BRAF V600E is degraded; for Emax: read-out: HiBit 24 h Emax. On the technique in general: HiBiT is a short tag that completes a luciferase, so light tracks the accessible tagged protein.
Sequence of BRAF^V600E protein (P15056 whole entry V600E): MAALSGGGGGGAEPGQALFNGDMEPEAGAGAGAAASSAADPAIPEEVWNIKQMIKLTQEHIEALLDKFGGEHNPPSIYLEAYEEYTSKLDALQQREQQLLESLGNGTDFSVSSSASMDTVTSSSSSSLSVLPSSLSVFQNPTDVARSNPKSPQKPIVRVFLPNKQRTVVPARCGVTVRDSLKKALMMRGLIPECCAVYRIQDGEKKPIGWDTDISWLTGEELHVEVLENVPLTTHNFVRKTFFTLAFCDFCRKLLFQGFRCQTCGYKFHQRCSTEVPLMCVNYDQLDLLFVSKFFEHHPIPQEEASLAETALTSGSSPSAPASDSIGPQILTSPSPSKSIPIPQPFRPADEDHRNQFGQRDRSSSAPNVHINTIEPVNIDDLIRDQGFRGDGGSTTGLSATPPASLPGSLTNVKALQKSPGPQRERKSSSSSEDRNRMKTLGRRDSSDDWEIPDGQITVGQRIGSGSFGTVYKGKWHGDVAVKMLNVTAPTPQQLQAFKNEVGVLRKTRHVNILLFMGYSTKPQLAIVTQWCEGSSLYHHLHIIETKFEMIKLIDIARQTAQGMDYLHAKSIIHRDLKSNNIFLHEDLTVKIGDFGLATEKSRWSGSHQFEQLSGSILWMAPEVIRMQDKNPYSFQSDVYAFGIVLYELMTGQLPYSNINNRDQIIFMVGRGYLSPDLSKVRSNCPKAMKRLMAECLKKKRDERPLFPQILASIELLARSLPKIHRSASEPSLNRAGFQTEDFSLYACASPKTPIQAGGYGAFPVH

[1] abbreviates: A375.10 cells, Emax = amount of residual protein remaining in the cell after compound treatment.

As to `O=C1CCC(Oc2ccc(C3CCN(C(=O)NC4CCN(Cc5ccc(-c6cnc7[nH]cc(C(=O)c8c(F)ccc(NS(=O)(=O)N9CCCC9)c8F)c7c6)cc5)CC4)CC3)cc2)C(=O)N1` (stereo not shown) [Example A27, N-[1-[[4-[3-[2,6-Difluoro-3-(pyrrolidin-1-ylsulfonylamino)benzoyl]-1H-pyrrolo[2,3-b]pyridin-5-yl]phenyl]methyl]piperidin-4-yl]-4-[4-(2,6-dioxopiperidin-3-yl)oxyphenyl]piperidine-1-carboxamide; formic acid], the DC50 – broadly, the concentration at which degradation of the target reaches its halfway point – came to 104 nM. Moreover, the Emax (as a rule, the size of the effect at its maximum, as opposed to the concentration needed) under setting [1] is 30%.
In the same order, the values of `CCN(C)S(=O)(=O)Nc1ccc(F)c(C(=O)c2c[nH]c3ncc(-c4ccc(CN5CCN(C(=O)CN6CCN(c7cccc(NC8CCC(=O)NC8=O)c7)CC6)CC5)cc4)cc23)c1F` (stereo not shown) [Example A25, 5-[4-[[4-[2-[4-[3-[(2,6-Dioxopiperidin-3-yl)amino]phenyl]piperazin-1-yl]acetyl]piperazin-1-yl]methyl]phenyl]-3-[3-[[ethyl(methyl)sulfamoyl]amino]-2,6-difluorobenzoyl]-1H-pyrrolo[2,3-b]pyridine; 2,2,2-trifluoroacetic acid] are 101 nM and 18%.
The molecule `CCN(C)S(=O)(=O)Nc1cccc(C(=O)c2c[nH]c3ncc(-c4ccc(N5CCN(C(=O)CC6(O)CCN(c7ncc(NC8CCC(=O)NC8=O)cc7F)CC6)CC5)cc4)cc23)c1F` (stereo not shown) [Example 120, 5-[4-[4-[2-[1-[5-[(2,6-dioxo-3-piperidyl)amino]-3-fluoro-2-pyridyl]-4-hydroxy-4-piperidyl]acetyl]piperazin-1-yl]phenyl]-3-[3-[[ethyl(methyl)sulfamoyl]amino]-2-fluoro-benzoyl]-1H-pyrrolo[2,3-b]pyridine] returned a DC50 of 2.87 nM. Moreover, the Emax under setting [1] was 9.99%.
In the same order, the values of `CCN(C)S(=O)(=O)Nc1ccc(F)c(C(=O)c2c[nH]c3ncc(-c4cnc(N5CCN(C(=O)CC6(O)CCN(c7ccc(C8CCC(=O)NC8=O)cc7F)CC6)CC5)c(F)c4)cc23)c1F` (stereo not shown) [Example 205, 5-[6-[4-[2-[1-[4-(2,6-dioxo-3-piperidyl)-2-fluoro-phenyl]-4-hydroxy-4-piperidyl]acetyl]piperazin-1-yl]-5-fluoro-3-pyridyl]-3-[3-[[ethyl(methyl)sulfamoyl]amino]-2,6-difluoro-benzoyl]-1H-pyrrolo[2,3-b]pyridine] are 2.34 nM and 6.63%.
`CCN(C)S(=O)(=O)Nc1ccc(F)c(C(=O)c2c[nH]c3ncc(-c4ccc(CN5CCN(CC(=O)N6CCC(c7ccc(NC8CCC(=O)NC8=O)cc7)CC6)CC5)cc4)cc23)c1F.O=C(O)C(F)(F)F` (stereo not shown) [Example A21, 5-[4-[[4-[2-[4-[4-[(2,6-Dioxopiperidin-3-yl)amino]phenyl]piperidin-1-yl]-2-oxoethyl]piperazin-1-yl]methyl]phenyl]-3-[3-[[ethyl(methyl)sulfamoyl]amino]-2,6-difluorobenzoyl]-1H-pyrrolo[2,3-b]pyridine;2,2,2-trifluoroacetic acid] registered a DC50 of 21 nM. Moreover, under setting [1], the “HiBit 24 h Emax” value is listed as 13%.
Molecule `CCN(C)S(=O)(=O)Nc1ccc(F)c(C(=O)c2c[nH]c3ncc(-c4cnc(N5CCN(C(=O)CC6CCN(c7ccc8c(N9CCC(=O)NC9=O)nn(C)c8c7)CC6)CC5)nc4)cc23)c1F` [Example 56, 3-(2,4-dioxohexahydropyrimidin-1-yl)-6-[4-[2-[4-[5-[3-[3-[[ethyl(methyl)sulfamoyl]amino]-2,6-difluoro-benzoyl]-1H-pyrrolo[2,3-b]pyridin-5-yl]pyrimidin-2-yl]piperazin-1-yl]-2-oxo-ethyl]-1-piperidyl]-1-methyl-indazole] had a DC50 of 5.12 nM. Besides, under setting [1], the Emax turned out to be 14.3%.
The matching figures for `CC(C)S(=O)(=O)Nc1ccc(F)c(C(=O)c2c[nH]c3ncc(-c4ccc(N5CCN(C(=O)CN6CCC(c7ccc(NC8CCC(=O)NC8=O)cc7F)CC6)CC5)nc4)cc23)c1F` (stereo not shown) [Example 12, N-[3-[5-[6-[4-[2-[4-[4-[(2,6-dioxo-3-piperidyl)amino]-2-fluoro-phenyl]-1-piperidyl]acetyl]piperazin-1-yl]-3-pyridyl]-1H-pyrrolo[2,3-b]pyridine-3-carbonyl]-2,4-difluoro-phenyl]propane-2-sulfonamide]: 9.73 nM and 8.03%.
For `CCN(C)S(=O)(=O)Nc1ccc(F)c(C(=O)c2c[nH]c3ncc(-c4cnc(N5CCN(C(=O)CN6CCC(c7ccc(NC89CC(C8)C(=O)NC9=O)cc7)CC6)CC5)nc4)cc23)c1F` [Example A87, 5-[2-[4-[2-[4-[4-[(2,4-Dioxo-3-azabicyclo[3.1.1]heptan-1-yl)amino]phenyl]piperidin-1-yl]acetyl]piperazin-1-yl]pyrimidin-5-yl]-3-[3-[[ethyl(methyl)sulfamoyl]amino]2,6-difluorobenzoyl]-1H-pyrrolo[2,3-b]pyridine; formic acid], the DC50 was 6 nM. In addition, the Emax under setting [1] is 7%.
In the same order, the values of `CCN(C)S(=O)(=O)Nc1ccc(F)c(C(=O)c2c[nH]c3ncc(-c4ccc(N5CCC(NCC(=O)N6CCC(c7ccc(OC8CCC(=O)NC8=O)cc7)CC6)CC5)cc4)cc23)c1F` (stereo not shown) [Example A99, 5-[4-[4-[[2-[4-[4-(2,6-Dioxopiperidin-3-yl)oxyphenyl]piperidin-1-yl]-2-oxoethyl]amino]piperidin-1-yl]phenyl]-3-[3-[[ethyl(methyl)sulfamoyl]amino]-2,6-difluorobenzoyl]-1H-pyrrolo[2,3-b]pyridine;hydrochloride] are 32 nM and 9%.
Molecule `CCN(C)S(=O)(=O)Nc1ccc(F)c(C(=O)c2c[nH]c3ncc(-c4ccc(CN5CCN(CC(=O)N6CCC(c7ccc(NC8CCC(=O)NC8=O)cc7)CC6)CC5)nc4)cc23)c1F` (stereo not shown) [Example A7, 5-[6-[[4-[2-[4-[4-[(2,6-Dioxopiperidin-3-yl)amino]phenyl]piperidin-1-yl]-2-oxoethyl]piperazin-1-yl]methyl]pyridin-3-yl]-3-[3-[[ethyl(methyl)sulfamoyl]amino]-2,6-difluorobenzoyl]-1H-pyrrolo[2,3-b]pyridine;2,2,2-trifluoroacetic acid] displayed a DC50 of 16.8 nM. Further, under setting [1], the Emax stood at 12.9%.
In the same order, the values of `CCN(C)S(=O)(=O)Nc1ccc(F)c(C(=O)c2c[nH]c3ncc(-c4ccc(N5CCN(CCN6CCC(c7ccc(OC8CCC(=O)NC8=O)cc7)CC6)C(=O)C5)nc4)cc23)c1F` (stereo not shown) [Example 147, 5-[6-[4-[2-[4-[4-[(2,6-dioxo-3-piperidyl)oxy]phenyl]-1-piperidyl]ethyl]-3-oxo-piperazin-1-yl]-3-pyridyl]-3-[3-[[ethyl(methyl)sulfamoyl]amino]-2,6-difluoro-benzoyl]-1H-pyrrolo[2,3-b]pyridine] are 17.2 nM and 14.6%.
Take `CCN(C)S(=O)(=O)Nc1cccc(C(=O)c2c[nH]c3ncc(-c4ccc(N5CCN(C(=O)CN6CCC(c7ccc(NC8CCC(=O)NC8=O)cc7)CC6)CC5)nc4)cc23)c1Br` (stereo not shown) [Example A114, 3-[2-Bromo-3-[[ethyl(methyl)sulfamoyl]amino]benzoyl]-5-[6-[4-[2-[4-[4-[(2,6-dioxopiperidin-3-yl)amino]phenyl]piperidin-1-yl]acetyl]piperazin-1-yl]pyridin-3-yl]-1H-pyrrolo[2,3-b]pyridine]: it took 8.83 nM to reach half-maximal degradation (DC50). Also, the Emax under setting [1] stood at 7.68%.
In the same order, the values of `CC(C)S(=O)(=O)Nc1ccc(F)c(C(=O)c2c[nH]c3ncc(-c4cnc(N5CCN(C(=O)CN6CCC(c7ccc(OC8CCC(=O)NC8=O)cc7)CC6)CC5)nc4)cc23)c1F` (stereo not shown) [Example 7, N-[3-[5-[2-[4-[2-[4-[4-[(2,6-dioxo-3-piperidyl)oxy]phenyl]-1-piperidyl]acetyl]piperazin-1-yl]pyrimidin-5-yl]-1H-pyrrolo[2,3-b]pyridine-3-carbonyl]-2,4-difluoro-phenyl]propane-2-sulfonamide] are 12.5 nM and 10.3%.
With `O=C1CCC(Nc2ccc(N3CCN(CC(=O)N4CCN(c5ccc(-c6cnc7[nH]cc(C(=O)c8c(F)ccc(NS(=O)(=O)N9CCCC9)c8F)c7c6)cc5)CC4)CC3)cc2)C(=O)N1` (stereo not shown) [Example A51, N-[3-[5-[4-[4-[2-[4-[4-[(2,6-Dioxopiperidin-3-yl)amino]phenyl]piperazin-1-yl]acetyl]piperazin-1-yl]phenyl]-1H-pyrrolo[2,3-b]pyridine-3-carbonyl]-2,4-difluorophenyl]pyrrolidine-1-sulfonamide], the DC50 came to 4 nM. In addition, the Emax under setting [1] turned out to be 14%.
In the same order, the values of `O=C1CCC(Nc2ccc(C3CCN(CC(=O)N4CC5(C4)CN(c4ncc(-c6cnc7[nH]cc(C(=O)c8c(F)ccc(NS(=O)(=O)N9CCCC9)c8F)c7c6)cn4)C5)CC3)cc2)C(=O)N1` (stereo not shown) [Example A120, N-[3-[5-[2-[2-[2-[4-[4-[(2,6-Dioxopiperidin-3-yl)amino]phenyl]piperidin-1-yl]acetyl]-2,6-diazaspiro[3.3]heptan-6-yl]pyrimidin-5-yl]-1H-pyrrolo[2,3-b]pyridine-3-carbonyl]-2,4-difluorophenyl]pyrrolidine-1-sulfonamide] are 8 nM and 8%.
For the molecule `O=C1CCC(Nc2ccc(C3CCN(CC(=O)N4CCN(c5ccc(-c6cnc7[nH]cc(C(=O)c8c(F)ccc(NS(=O)(=O)N9CCCC9)c8F)c7c6)cn5)CC4)CC3)cc2)C(=O)N1` (stereo not shown) [Example A72, N-[3-[5-[6-[4-[2-[4-[4-[(2,6-Dioxopiperidin-3-yl)amino]phenyl]piperidin-1-yl]acetyl]piperazin-1-yl]pyridin-3-yl]-1H-pyrrolo[2,3-b]pyridine-3-carbonyl]-2,4-difluorophenyl]pyrrolidine-1-sulfonamide], the DC50 came out at 4.47 nM. Also, the Emax under setting [1] is 16.1%.
The matching figures for `CCN(C)S(=O)(=O)Nc1ccc(F)c(C(=O)c2c[nH]c3ncc(-c4ccc(N5CCN(C(=O)CCCN6CCC(c7ccc(OC8CCC(=O)NC8=O)cc7)CC6)CC5)cc4)cc23)c1F` (stereo not shown) [Example A15, 5-[4-[4-[4-[4-[4-(2,6-Dioxopiperidin-3-yl)oxyphenyl]piperidin-1-yl]butanoyl]piperazin-1-yl]phenyl]-3-[3-[[ethyl(methyl)sulfamoyl]amino]-2,6-difluorobenzoyl]-1H-pyrrolo[2,3-b]pyridine]: 24 nM and 14%.
